A value given as a limit tells only on which side of the number the result lay.

The target in the assay is T1, AKT1-E17K (Homo sapiens, UniProt P31749, E17K).
T1 construct: host or cells: HEK-293 (ATCC CRL-1573)
T1 sequence (P31749 whole entry E17K): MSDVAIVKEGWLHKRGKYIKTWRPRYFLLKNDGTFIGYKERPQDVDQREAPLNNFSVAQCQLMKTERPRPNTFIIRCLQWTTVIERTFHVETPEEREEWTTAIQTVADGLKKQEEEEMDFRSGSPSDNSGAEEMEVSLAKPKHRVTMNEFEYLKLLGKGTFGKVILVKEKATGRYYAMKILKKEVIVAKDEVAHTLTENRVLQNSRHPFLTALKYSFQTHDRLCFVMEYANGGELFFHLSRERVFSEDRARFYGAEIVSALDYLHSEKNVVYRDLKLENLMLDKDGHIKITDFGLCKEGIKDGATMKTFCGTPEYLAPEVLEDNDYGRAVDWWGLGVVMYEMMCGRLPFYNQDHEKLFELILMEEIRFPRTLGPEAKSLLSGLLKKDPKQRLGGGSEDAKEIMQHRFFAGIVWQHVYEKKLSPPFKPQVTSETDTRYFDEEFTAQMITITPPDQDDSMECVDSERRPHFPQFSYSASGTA
Nature of the assay: NanoBRET Target Engagement (TE) Assay. The assay is classed as cell-based. The method in brief: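 Live cells transiently expressing NanoLuc-AKT1 E17K fusion, incubated 2 h with tracer and compound before substrate plus extracellular NanoLuc inhibitor were added. BRET read at 450/600 nm; EC50 from variable-slope sigmoidal fit of tracer displacement.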
(In general: In BRET a luciferase serves as donor, and the signal depends on an acceptor being close.)
Usually IC50 stands for the midpoint of a concentration-inhibition curve. Turning to `Nc1ncccc1-c1nc2ccc(-c3ccccc3)nc2n1-c1ccc(CN2CCN(c3ccc(C=O)c(O)c3)C3(CC3)C2)cc1` [Example 108, 4-(7-(4-(2-(2-Aminopyridin-3-yl)-5-phenyl-3H-imidazo[4,5-b]pyridin-3-yl)benzyl)-4,7-diazaspiro[2.5]octan-4-yl)-2-hydroxybenzaldehyde], the IC50 fell in the range of 60 to 600 nM. In the case of `Nc1ncccc1-c1nc2ccc(N3CCOCC3)nc2n1-c1ccc(CN2CCC(NC(=O)c3ccc(O)c(C=O)c3)CC2)cc1` [Example 52, N-(1-(4-(2-(2-Aminopyridin-3-yl)-5-morpholino-3H-imidazo[4,5-b]pyridin-3-yl)benzyl)piperidin-4-yl)-3-formyl-4-hydroxybenzamide] it was 15 to 60 nM; in that of `N#Cc1ccc(-c2ccc3nc(-c4cccnc4N)n(-c4ccc(CN5CCN(C(=O)c6ccc(O)c(C=O)c6)CC5)cc4)c3n2)cc1` [Example 38, 4-(2-(2-Aminopyridin-3-yl)-3-(4-((4-(3-formyl-4-hydroxybenzoyl)piperazin-1-yl)methyl)phenyl)-3H-imidazo[4,5-b]pyridin-5-yl)benzonitrile], 60 to 600 nM; in that of `Nc1ncccc1-c1nc2ccc(-c3ccccc3)nc2n1-c1ccc(CN2C3CCC2CN(C(=O)c2ccc(O)c(C=O)c2)C3)cc1` [Example 112, 5-(8-(4-(2-(2-Aminopyridin-3-yl)-5-phenyl-3H-imidazo[4,5-b]pyridin-3-yl)benzyl)-3,8-diazabicyclo[3.2.1]octane-3-carbonyl)-2-hydroxybenzaldehyde], over 600 nM. `Nc1ncccc1-c1nc2ccc(-c3cccc(=O)[nH]3)nc2n1-c1ccc(CN2CCN(C(=O)c3ccc(C=O)c(O)c3)CC2)cc1` [Example 46, 4-(4-(4-(2-(2-Aminopyridin-3-yl)-5-(6-oxo-1,6-dihydropyridin-2-yl)-3H-imidazo[4,5-b]pyridin-3-yl)benzyl)piperazine-1-carbonyl)-2-hydroxybenzaldehyde] came in with a concentration for half-maximal inhibition (IC50) of over 600 nM. To `Nc1ncccc1-c1nc2ccc(-c3ccccc3)nc2n1-c1ccc(CN2CCC3(CC2)CN(C(=O)c2ccc(C=O)c(O)c2)C3)cc1` [Example 71, 4-(7-(4-(2-(2-Aminopyridin-3-yl)-5-phenyl-3H-imidazo[4,5-b]pyridin-3-yl)benzyl)-2,7-diazaspiro[3.5]nonane-2-carbonyl)-2-hydroxybenzaldehyde] belongs over 600 nM; to `Nc1ncccc1-c1nc2ccc(-c3ccccc3)nc2n1-c1ccc(CN2C[C@@H]3CN(c4ccc(O)c(C=O)c4)C[C@@H]3C2)cc1` [Example 134, 5-((3aR,6aS)-5-(4-(2-(2-Aminopyridin-3-yl)-5-phenyl-3H-imidazo[4,5-b]pyridin-3-yl)benzyl)hexahydropyrrolo[3,4-c]pyrrol-2(1H)-yl)-2-hydroxybenzaldehyde], 60 to 600 nM. `Nc1ncccc1-c1nc2ccc(-c3ccccc3)nc2n1-c1ccc(CN2C[C@@H]3CN(C(=O)c4ccc(O)c(C=O)c4)C[C@@H]3C2)cc1` [Example 131, 5-((3aR,6aS)-5-(4-(2-(2-Aminopyridin-3-yl)-5-phenyl-3H-imidazo[4,5-b]pyridin-3-yl)benzyl)octahydropyrrolo[3,4-c]pyrrole-2-carbonyl)-2-hydroxybenzaldehyde] showed an IC50 of 60 to 600 nM.

These data come from patent publication US20260365647A1, “AKT1 MODULATORS” (Alterome Therapeutics, Inc., priority 2022, published 2026).
